Like-named read-outs stand apart in the source and are kept apart here.
What was measured:
[1] = system: methicillin-resistant Staphylococcus aureus (MRSA); experiment: Determination of MIC values (BHI broth, 96 well microtiter plate); assay type: cell-based; conditions: Staphylococcus aureus, MRSA, read-out: MIC MRSA
Procedure: (§1) Stock solutions of compounds are prepared with a concentration of 10 mg/mL. These solutions are then diluted 1:4 to give a concentration of 2.5 mg/mL. The compounds are then serially diluted 1:2 for 6 iterations. The concentrations made for each compound are 2.5, 1.25, 0.625, 0.3125, 0.156, 0.078, and 0.039 mg/mL. A control sample (no compound) is run along with each compound tested. All dilutions are made in DMSO.
(§2) All wells of a 96 well microtiter plate are filled with 100 μL of BHI (Brain-Heart Infusion) broth. Columns on the plate are labeled 1-12, and rows are labeled A-H. Each column of wells is used to test one series of diluted compounds. Into each well of 100 μL of BHI broth, 1 μL of diluted compound is placed for a 1:100 dilution. This makes the final concentration of each drug series 25, 12.5, 6.25, 3.125, 1.56, 0.78, 0.39, and 0 μg/mL.
(§3) Test Organism: A sterile 15 mL screw cap tube is filled wth 3 mL of BHI broth. Next, 2-3 colonies of test organism are inoculated into the tube. The tube is then incubated at 37° C. in a CO2 (approx. 7%) atmosphere jar. The organisms are allowed to grow to the density of a 0.5 McFarland standard (10^8 cells/mL). The organism is then inoculated into each well of the microtiter plate containing the diluted compounds to be tested for MIC. The inoculum is 1 μL in volume and represents 10^5 to 10^6 cells/mL.
(§4) After inoculation the plates are covered and incubated at 37° C. and approx. 7-10% CO2 atmosphere overnight (about 16 hours). The plates are then observed for growth, the well with the lowest concentration of drug and no observable growth represents the well determining the MIC.

[2] = system: vancomycin-resistant Enterococcus spp. (VRE); experiment: as above; assay type: cell-based; conditions: Enterococcus, VRE, read-out: MIC VREF
Procedure: as §1, §2, §3, §4

[3] = 16 h, BHI broth, 37° C., overnight (about 16 hours)
[4] = VREF, BHI broth, overnight 37° C.

Row | Structure (SMILES) | MIC [1, 3] | MIC [2, 3] | other results
1 | COc1cc2[nH]cc(-c3ccc4cc(Cl)ccc4n3)c2cc1OC [Example 206] | – | – | MIC ([1]; BHI broth, overnight 37° C.): > 25 µg/mL; MIC [2, 4]: > 25 µg/mL
2 | CN(CC#Cc1cccc2c(C(=O)NCc3ccc(CN)cc3)cc(-c3c[nH]c4ccc(Br)cc34)nc12)C1CCCCC1 [Example 265] | – | – | MIC ([1]; BHI broth, overnight 37° C.): < 7 µg/mL; MIC [2, 4]: < 7 µg/mL
3 | NCc1ccc(CNC(=O)c2cc(-c3c[nH]c4ccc(Br)cc34)nc3cc4c(cc23)OCCO4)cc1 [Example 150] | > 25 µg/mL | > 25 µg/mL | –
4 | Cc1ccc2[nH]cc(-c3ccc4ccccc4n3)c2c1 [Example 188] | > 25 µg/mL | > 25 µg/mL | –
5 | Fc1cccc2[nH]cc(-c3ccc4ccccc4n3)c12 [Example 182] | > 25 µg/mL | > 25 µg/mL | –
6 | O=C(NC1CN2CCC1CC2)c1cc(-c2c[nH]c3ccc(Br)cc23)nc2ccccc12 (stereo not shown) [Example 35] | – | – | MIC ([1]; 16 h): < 25 µg/mL; MIC ([2]; 16 h): > 25 µg/mL
7 | CNC1CCN(C(=O)c2cc(-c3c[nH]c4ccc(Br)cc34)nc3ccccc23)C1 (stereo not shown) [Example 60] | < 25 µg/mL | < 25 µg/mL | –
8 | O=C(O)c1cc(-c2c[nH]c3ccc(Br)cc23)nc2ccc(C#CCN3CCNCC3)cc12 [Example 207] | – | – | MIC ([1]; BHI broth, overnight 37° C.): > 25 µg/mL; MIC [2, 4]: < 25 µg/mL
9 | NCCCCNC(=O)c1cc(-c2c[nH]c3ccc(Br)cc23)nc2ccccc12 [compound 58] | < 25 µg/mL | < 25 µg/mL | –
10 | NCc1cccc(CNC(=O)c2cc(-c3c[nH]c4ccc(Br)cc34)nc3ccc(Br)cc23)c1 [Example 125] | < 7 µg/mL | < 7 µg/mL | –
11 | O=C(Nc1ccccc1C(F)(F)F)N1CCN(C(=O)c2cc(-c3c[nH]c4ccc(Br)cc34)nc3ccccc23)CC1 [Example 64] | > 25 µg/mL | > 25 µg/mL | –
12 | NCc1ccc(CNC(=O)c2cc(-c3c[nH]c4ccc(Br)cc34)nc3ccc(OC(F)(F)F)cc23)cc1 [Example 55] | < 7 µg/mL | < 7 µg/mL | –
13 | N#Cc1ccc2[nH]cc(-c3ccc4ccccc4n3)c2c1 [Example 190] | > 25 µg/mL | > 25 µg/mL | –
14 | NCc1ccc(CNC(=O)c2cc(C34CC5CC(CC(C5)C3)C4)nc3ccccc23)cc1 [Example 26] | < 25 µg/mL | < 25 µg/mL | –
15 | NCc1ccc(CNC(=O)c2cc(-c3csc4ccccc34)nc3ccccc23)cc1 [Example 52] | < 25 µg/mL | < 25 µg/mL | –
16 | Cc1ccc2c(c1)c(-c1ccc3cc(Cl)ccc3n1)cn2C [Example 216] | – | – | MIC ([1]; BHI broth, overnight 37° C.): < 25 µg/mL; MIC [2, 4]: > 25 µg/mL
17 | Cc1cccc2c(-c3ccc4ccccc4n3)c[nH]c12 [Example 189] | < 25 µg/mL | < 25 µg/mL | –
18 | Cc1[nH]c2ccccc2c1-c1ccc2ccccc2n1 [Example 187] | > 25 µg/mL | > 25 µg/mL | –
19 | O=C(NCc1ccc(CNC(=O)c2cc(-c3c[nH]c4ccc(Br)cc34)nc3ccccc23)cc1)Nc1ccccc1 [Example 40] | > 25 µg/mL | > 25 µg/mL | –
20 | COC(=O)c1ccc2nc(-c3c[nH]c4ccc(Br)cc34)cc(C(=O)NCc3ccc(CN)cc3)c2c1 [Example 105] | > 25 µg/mL | < 25 µg/mL | –
21 | NCc1ccc(CNC(=O)c2cc(-c3c[nH]c4ccc(Br)cc34)nc3ccc(CO)cc23)cc1 [Example 100] | > 25 µg/mL | > 25 µg/mL | –
22 | O=C(c1cc(C23CC4CC(CC(C4)C2)C3)nc2ccccc12)N1CCNCC1 [Example 25] | > 25 µg/mL | > 25 µg/mL | –
23 | Cn1cc(-c2ccc3cc(Cl)ccc3n2)c2cc(OCc3ccccc3)ccc21 [Example 213] | – | – | MIC ([1]; BHI broth, overnight 37° C.): < 25 µg/mL; MIC [2, 4]: < 25 µg/mL
24 | Cc1ccc2[nH]cc(-c3ccc4cc(Cl)ccc4n3)c2c1 [Example 198] | > 25 µg/mL | > 25 µg/mL | –
25 | NC(=O)C(Cc1ccc2ccccc2c1)NC(=O)c1cc(-c2c[nH]c3ccccc23)nc2ccccc12 (stereo not shown) [Example 145] | < 7 µg/mL | < 25 µg/mL | –
26 | COc1ccc(NC(=O)N2CCN(C(=O)c3cc(-c4c[nH]c5ccc(Br)cc45)nc4ccccc34)CC2)c(OC)c1 [Example 63] | > 25 µg/mL | > 25 µg/mL | –
27 | NCc1ccc(CNC(=O)c2cc(-c3ccoc3)nc3ccccc23)cc1 [Example 82] | > 25 µg/mL | > 25 µg/mL | –
28 | NCCNC(=O)c1cc(-c2c[nH]c3ccc(Br)cc23)nc2cc(Cl)c(C#CCN3CCCCC3)cc12 [Example 488] | – | – | MIC ([1]; 16 h, BHI broth, 37° C., about 16 hours): < 7 µg/mL

Continued, in another order:

Row | MIC [1, 3] | MIC [2, 3] | Structure (SMILES) | other results
29 | < 25 µg/mL | < 25 µg/mL | CNC1CCN(C(=O)c2cc(-c3c[nH]c4ccc(Br)cc34)nc3ccccc23)CC1 [Example 31] | –
30 | < 7 µg/mL | < 7 µg/mL | NCCCCCCNC(=O)c1cc(-c2c[nH]c3ccc(Br)cc23)nc2ccccc12 [Example 59] | –
31 | < 25 µg/mL | < 25 µg/mL | NC1CCN(C(=O)c2cc(-c3c[nH]c4ccc(Br)cc34)nc3ccccc23)C1 (stereo not shown) [Example 43] | –
32 | < 7 µg/mL | < 25 µg/mL | Cc1c(-c2c[nH]c3ccc(Br)cc23)nc2ccc(I)cc2c1C(=O)NCc1ccc(CN)cc1 [Example 152] | –
33 | < 25 µg/mL | < 25 µg/mL | NC(=O)C1CCCN(C(=O)c2cc(-c3c[nH]c4ccc(Br)cc34)nc3ccccc23)C1 (stereo not shown) [Example 46] | –
34 | < 25 µg/mL | < 7 µg/mL | O=C(Nc1ccc(C(F)(F)F)cc1)N1CCN(C(=O)c2cc(-c3c[nH]c4ccc(Br)cc34)nc3ccccc23)CC1 [Example 65] | –
35 | < 25 µg/mL | > 25 µg/mL | Cc1ccc2[nH]cc(-c3cc(C(=O)NCc4ccc(CN)cc4)c4ccccc4n3)c2c1 [Example 17] | –
36 | < 7 µg/mL | < 25 µg/mL | CNCc1ccc(CNCc2cc(-c3c[nH]c4ccc(Br)cc34)nc3ccccc23)cc1 [Example 50] | –
37 | < 25 µg/mL | < 25 µg/mL | NC(=O)c1cc(-c2c[nH]c3ccc(Br)cc23)nc2ccc(C#CCN3CCCCC3)cc12 [Example 137] | –
38 | < 25 µg/mL | < 7 µg/mL | O=C(NCc1ccc(CNC(=O)c2cc(-c3c[nH]c4ccc(Br)cc34)nc3ccccc23)cc1)Nc1cc(C(F)(F)F)cc(C(F)(F)F)c1 [Example 90] | –
39 | < 7 µg/mL | < 7 µg/mL | NCc1ccc(CNCc2cc(-c3c[nH]c4ccc(Br)cc34)nc3ccccc23)cc1 [Example 39] | –
40 | > 25 µg/mL | > 25 µg/mL | O=C(O)c1cc(-c2c[nH]c3ccccc23)nc2c(Cl)cccc12 [Example 156] | –
41 | < 25 µg/mL | < 25 µg/mL | O=C(c1cc(-c2c[nH]c3ccc(Br)cc23)nc2ccccc12)N1CCN(c2ccc(F)cc2)CC1 [Example 32] | –
42 | > 25 µg/mL | > 25 µg/mL | O=C(CCC(=O)N1CCN(C(=O)c2cc(-c3c[nH]c4ccc(Br)cc34)nc3ccccc23)CC1)N1CCN(C(=O)c2cc(-c3c[nH]c4ccc(Br)cc34)nc3ccccc23)CC1 [Example 62] | –
43 | > 25 µg/mL | < 25 µg/mL | NCc1ccc(CNC(=O)c2cc(-c3csc4ccc(Cl)cc34)nc3ccc(I)cc23)cc1 [Example 140] | –
44 | < 25 µg/mL | < 25 µg/mL | NC1CCC(NC(=O)c2cc(-c3c[nH]c4ccc(Br)cc34)nc3ccccc23)CC1 (stereo not shown) [Example 106] | –
45 | < 7 µg/mL | < 25 µg/mL | Cc1ccc2[nH]cc(-c3cc(C(=O)NC(Cc4ccc5ccccc5c4)C(N)=O)c4ccccc4n3)c2c1 (stereo not shown) [Example 146] | –
46 | < 7 µg/mL | < 25 µg/mL | O=C(NCc1ccc(CNC(=O)c2cc(-c3c[nH]c4ccc(Br)cc34)nc3ccccc23)cc1)Nc1ccc(C(F)(F)F)cc1 [Example 85] | –
47 | < 7 µg/mL | < 7 µg/mL | O=C(Nc1ccc(OC(F)(F)F)cc1)N1CCN(C(=O)c2cc(-c3c[nH]c4ccc(Br)cc34)nc3ccccc23)CC1 [Example 68] | –
48 | > 25 µg/mL | > 25 µg/mL | NCc1ccc(CNC(=O)c2cc(-c3c(-c4ccccc4)[nH]c4ccccc34)nc3ccccc23)cc1 [Example 22] | –
49 | < 25 µg/mL | < 25 µg/mL | N=C(N)NCCCC(NC(=O)c1cc(-c2c[nH]c3ccc(Br)cc23)nc2ccccc12)C(N)=O (stereo not shown) [Example 57] | –
50 | < 7 µg/mL | < 7 µg/mL | NCc1ccc(CNC(=O)c2cc(-c3c[nH]c4ccc(Br)cc34)nc3ccc(C#Cc4ccccc4)cc23)cc1 [Example 101] | –
51 | > 25 µg/mL | > 25 µg/mL | O=C(c1cc(-c2c[nH]c3ccc(Br)cc23)nc2ccccc12)N1CCN(Cc2ccccc2)CC1 [Example 45] | –
52 | < 25 µg/mL | < 25 µg/mL | Cc1cc(Cl)cc2c(C(=O)NCc3ccc(CN)cc3)cc(-c3c[nH]c4ccc(Br)cc34)nc12 [Example 56] | –
53 | < 7 µg/mL | < 7 µg/mL | NCC1CCCC(CNC(=O)c2cc(-c3c[nH]c4ccc(Br)cc34)nc3ccccc23)C1 (stereo not shown) [compound 5] | –
54 | > 25 µg/mL | > 25 µg/mL | NCc1ccc(CNC(=O)c2cc(-c3ccncc3)nc3ccc(Br)cc23)cc1 [Example 94] | –
55 | < 7 µg/mL | < 7 µg/mL | NCCN(CCNC(=O)c1cccc2nc(-c3c[nH]c4ccc(Br)cc34)ccc12)CCNC(=O)c1cc(-c2c[nH]c3ccc(Br)cc23)nc2ccccc12 [Example 51] | –

— patent publication US6376670B1, “Quinoline-indole antimicrobial agents, uses and compositions related thereto” (Sepracor Inc., priority 1997, dated 2002)
